# Test results published in patent publication US20250235543A1, “MODIFIED PROTEINS AND PROTEIN DEGRADERS” (Cullgen (Shanghai), Inc., priority 2021, published 2025).
# Like-named read-outs stand apart in the source and are kept apart here.
# Tests used:
# cyclin D1 = test: Cyclin D1 percentage degradation in Calu-1 cells (immunoblotting); type: cell-based; conditions: 16 hours
# How it was run: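 Cyclin D1 degradation was assessed by western blot. Clarified lysates, obtained by RIPA lysis with inhibitors and centrifugation at 13,000 rpm, were normalized by BCA protein assay and separated by SDS-PAGE. Bands were detected with Western ECL Substrate on a Bio-Rad ChemiDoc MP Imaging system and quantified in Image Lab software to derive percentage degradation.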
# CDK4 = biological target: T1, CDK4 (Homo sapiens, UniProt P11802); test: CDK4 percentage degradation in Calu-1 cells (immunoblotting); type: cell-based; conditions: for inhibition at 10 µM: read-out: CDK4 Degradation (10 μM); for inhibition at 0.2 µM: read-out: CDK4 Degradation (200 nM)
# T1 construct: endogenous in cells; host or cells: Calu-1
# T1 sequence (P11802 2-303 limits assumed): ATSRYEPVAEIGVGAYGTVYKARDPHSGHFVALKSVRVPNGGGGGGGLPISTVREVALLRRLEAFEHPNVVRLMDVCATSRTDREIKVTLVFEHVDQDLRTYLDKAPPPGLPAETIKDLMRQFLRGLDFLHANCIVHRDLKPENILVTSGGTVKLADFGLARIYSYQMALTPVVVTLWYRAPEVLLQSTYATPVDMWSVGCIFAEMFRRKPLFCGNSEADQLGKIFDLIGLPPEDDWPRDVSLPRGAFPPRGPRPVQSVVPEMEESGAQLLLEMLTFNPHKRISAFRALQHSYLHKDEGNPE
# T1 sequence (P24385 whole entry partner): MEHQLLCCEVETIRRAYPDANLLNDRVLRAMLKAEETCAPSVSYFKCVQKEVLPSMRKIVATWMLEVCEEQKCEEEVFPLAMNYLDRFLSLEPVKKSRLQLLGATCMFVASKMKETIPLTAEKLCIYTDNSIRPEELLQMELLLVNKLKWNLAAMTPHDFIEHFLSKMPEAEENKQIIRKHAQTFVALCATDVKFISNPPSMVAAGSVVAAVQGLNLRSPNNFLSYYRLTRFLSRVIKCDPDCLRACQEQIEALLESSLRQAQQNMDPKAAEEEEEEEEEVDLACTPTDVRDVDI
# T1 sequence (Q16531 2-1140 limits assumed, further chain): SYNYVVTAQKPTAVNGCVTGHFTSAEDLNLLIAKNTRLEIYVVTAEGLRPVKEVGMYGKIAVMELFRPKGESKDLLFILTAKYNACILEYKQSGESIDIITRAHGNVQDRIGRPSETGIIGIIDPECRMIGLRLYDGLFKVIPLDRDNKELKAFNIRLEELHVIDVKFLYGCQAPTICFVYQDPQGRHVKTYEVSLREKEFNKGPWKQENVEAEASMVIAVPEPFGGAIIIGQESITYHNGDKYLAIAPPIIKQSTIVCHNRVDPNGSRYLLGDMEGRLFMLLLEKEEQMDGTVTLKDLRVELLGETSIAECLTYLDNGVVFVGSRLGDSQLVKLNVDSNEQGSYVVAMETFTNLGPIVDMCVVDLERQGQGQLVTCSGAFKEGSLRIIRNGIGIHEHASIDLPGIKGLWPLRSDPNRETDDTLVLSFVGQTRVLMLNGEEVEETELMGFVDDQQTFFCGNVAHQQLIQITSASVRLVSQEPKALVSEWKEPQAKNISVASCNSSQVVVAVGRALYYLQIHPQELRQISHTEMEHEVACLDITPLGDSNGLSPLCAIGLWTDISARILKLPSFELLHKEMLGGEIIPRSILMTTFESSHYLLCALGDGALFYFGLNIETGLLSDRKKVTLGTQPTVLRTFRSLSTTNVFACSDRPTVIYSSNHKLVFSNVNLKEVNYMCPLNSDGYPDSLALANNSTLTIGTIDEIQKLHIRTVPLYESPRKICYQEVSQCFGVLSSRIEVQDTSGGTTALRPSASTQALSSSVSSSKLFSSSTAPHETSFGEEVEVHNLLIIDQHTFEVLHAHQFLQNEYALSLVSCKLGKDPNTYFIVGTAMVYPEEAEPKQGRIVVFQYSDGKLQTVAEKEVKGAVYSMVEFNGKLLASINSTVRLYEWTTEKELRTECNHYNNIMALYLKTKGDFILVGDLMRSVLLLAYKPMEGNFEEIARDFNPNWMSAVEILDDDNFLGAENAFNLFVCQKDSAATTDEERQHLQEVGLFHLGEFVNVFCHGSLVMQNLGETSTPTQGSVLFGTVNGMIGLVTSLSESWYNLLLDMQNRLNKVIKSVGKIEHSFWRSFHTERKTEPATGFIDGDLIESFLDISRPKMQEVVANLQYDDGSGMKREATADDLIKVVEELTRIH
# How it was run: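 CDK4 degradation was measured by immunoblotting. Cells were washed in cold PBS and lysed in RIPA buffer with inhibitors for 30 min at 4° C., then spun at 13,000 rpm to clear. After BCA protein determination, lysates were heated at 99° C. for 5 min in Laemmli buffer, resolved on SDS-PAGE, imaged on a ChemiDoc MP with ECL substrate, and band intensities quantified.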
"inhibition at 10 µM (CDK4; Calu-1 cells, 16 hours)","inhibition at 0.2 µM (CDK4; Calu-1 cells, 200 nM, 16 hours)",Structure (SMILES),CyclinD1 Degradation (10 μM) (cyclin D1),CyclinD1 Degradation (200 nM) (cyclin D1),"inhibition at 0.2 µM (CDK4; Calu-1, 16 h)"
< 30%,,"Cc1nc(NC(=O)c2ccccc2NC(=O)CNC(=O)CN2CCN(c3ccc(Nc4ncc(F)c(-c5cc(F)c6nc(C)n(C(C)C)c6c5)n4)nc3)CC2)sc1C [CPD-300, N-(4,5-Dimethylthiazol-2-yl)-2-(2-(2-(4-(6-((5-fluoro-4-(4-fluoro-1-isopropyl-2-methyl-1H-benzo[d]imidazol-6-yl)pyrimidin-2-yl)amino)pyridin-3-yl)piperazin-1-yl)acetamido)acetamido)benzamide]",D (protein percentage degradation < 30%),,
,50 to 80%,"CC(=O)c1c(C)c2cnc(Nc3ccc(N4CCN(CC(=O)NCCOCCOCCC(=O)Nc5ccccc5C(=O)Nc5ccc(OC6CC6)nn5)CC4)cn3)nc2n(C2CCCC2)c1=O [CPD-350, 2-(3-(2-(2-(2-(4-(6-((6-Acetyl-8-cyclopentyl-5-methyl-7-oxo-7,8-dihydropyrido[2,3-d]pyrimidin-2-yl)amino)pyridin-3-yl)piperazin-1-yl)acetamido)ethoxy)ethoxy)propanamido)-N-(6-cyclopropoxypyridazin-3-yl)benzamide]",,A (protein percentage degradation >=80%),
< 30%,,"Cc1nc(NC(=O)c2ccccc2NC(=O)CCCCCCNC(=O)CN2CCN(c3ccc(Nc4ncc(F)c(-c5cc(F)c6nc(C)n(C(C)C)c6c5)n4)nc3)CC2)sc1C [CPD-305, N-(4,5-Dimethylthiazol-2-yl)-2-(7-(2-(4-(6-((5-fluoro-4-(4-fluoro-1-isopropyl-2-methyl-1H-benzo[d]imidazol-6-yl)pyrimidin-2-yl)amino)pyridin-3-yl)piperazin-1-yl)acetamido)heptanamido)benzamide]",D (protein percentage degradation < 30%),,
,30 to 50%,"CC(=O)c1c(C)c2cnc(Nc3ccc(N4CCN(CC(=O)NCCOCCOCCOCCNC(=O)CNc5ccc(C(=O)Nc6ncc(C)s6)c(C)c5)CC4)cn3)nc2n(C2CCCC2)c1=O [CPD-018, 4-((17-(4-(6-((6-Acetyl-8-cyclopentyl-5-methyl-7-oxo-7,8-dihydropyrido[2,3-d]pyrimidin-2-yl)amino)pyridin-3-yl)piperazin-1-yl)-2,16-dioxo-6,9,12-trioxa-3,15-diazaheptadecyl)amino)-2-methyl-N-(5-methylthiazol-2-yl)benzamide]",,"C (protein percentage degradation <50%, and >=30%)",
,> 80%,"CC(=O)c1c(C)c2cnc(Nc3ccc(N4CCN(CC(=O)NCCOCCOCCC(=O)Nc5ccccc5C(=O)Nc5ncc(C)s5)CC4)cn3)nc2n(C2CCCC2)c1=O [CPD-051, 2-(3-(2-(2-(2-(4-(6-((6-Acetyl-8-cyclopentyl-5-methyl-7-oxo-7,8-dihydropyrido[2,3-d]pyrimidin-2-yl)amino)pyridin-3-yl)piperazin-1-yl)acetamido)ethoxy)ethoxy)propanamido)-N-(5-methylthiazol-2-yl)benzamide]",,A (protein percentage degradation >=80%),
,50 to 80%,"CCCCNc1ccc(C(=O)Nc2nc(C)c(C)s2)c(NC(=O)CCOCCOCCNC(=O)CN2CCN(c3ccc(Nc4ncc5c(C)c(C(C)=O)c(=O)n(C6CCCC6)c5n4)nc3)CC2)c1 [CPD-168, 2-(3-(2-(2-(2-(4-(6-((6-Acetyl-8-cyclopentyl-5-methyl-7-oxo-7,8-dihydropyrido[2,3-d]pyrimidin-2-yl)amino)pyridin-3-yl)piperazin-1-yl)acetamido)ethoxy)ethoxy)propanamido)-4-(butylamino)-N-(4,5-dimethylthiazol-2-yl)benzamide]",,A (protein percentage degradation >=80%),
< 30%,,"Cc1nc(NC(=O)c2ccccc2NC(=O)CCOCCNC(=O)CN2CCN(Cc3ccc(Nc4ncc(F)c(-c5cc(F)c6nc(C)n(C(C)C)c6c5)n4)nc3)CC2)sc1C [CPD-280, N-(4,5-Dimethylthiazol-2-yl)-2-(3-(2-(2-(4-((6-((5-fluoro-4-(4-fluoro-1-isopropyl-2-methyl-1H-benzo[d]imidazol-6-yl)pyrimidin-2-yl)amino)pyridin-3-yl)methyl)piperazin-1-yl)acetamido)ethoxy)propanamido)benzamide]",D (protein percentage degradation < 30%),,
,50 to 80%,"CC(=O)c1c(C)c2cnc(Nc3ccc(N4CCN(CC(=O)NCCCCCCCCCNc5ccccc5C(=O)Nc5nc(C)c(C)s5)CC4)cn3)nc2n(C2CCCC2)c1=O [CPD-268, 2-((9-(2-(4-(6-((6-Acetyl-8-cyclopentyl-5-methyl-7-oxo-7,8-dihydropyrido[2,3-d]pyrimidin-2-yl)amino)pyridin-3-yl)piperazin-1-yl)acetamido)nonyl)amino)-N-(4,5-dimethylthiazol-2-yl)benzamide]",,A (protein percentage degradation >=80%),
,50 to 80%,"CC(=O)c1c(C)c2cnc(Nc3ccc(N4CCN(CC(=O)NCCOCCOCCC(=O)Nc5ccccc5C(=O)Nc5ccc(C)c(C6CC6)n5)CC4)cn3)nc2n(C2CCCC2)c1=O [CPD-270, 2-(3-(2-(2-(2-(4-(6-((6-Acetyl-8-cyclopentyl-5-methyl-7-oxo-7,8-dihydropyrido[2,3-d]pyrimidin-2-yl)amino)pyridin-3-yl)piperazin-1-yl)acetamido)ethoxy)ethoxy)propanamido)-N-(6-cyclopropyl-5-methylpyridin-2-yl)benzamide]",,A (protein percentage degradation >=80%),
50 to 80%,,"Cc1nc(NC(=O)c2ccccc2NC(=O)CCOCCOCCOCCOCCNC(=O)CN2CCN(c3ccc(Nc4ncc5cc(C(=O)N(C)C)n(C6CCCC6)c5n4)nc3)CC2)sc1C [CPD-297, 7-Cyclopentyl-2-((5-(4-(18-((2-((4,5-dimethylthiazol-2-yl)carbamoyl)phenyl)amino)-2,18-dioxo-6,9,12,15-tetraoxa-3-azaoctadecyl)piperazin-1-yl)pyridin-2-yl)amino)-N,N-dimethyl-7H-pyrrolo[2,3-d]pyrimidine-6-carboxamide]",A (protein percentage degradation >= 80%),,
,,"CC(=O)c1c(C)c2cnc(Nc3ccc(N4CCN(C(=O)CCOCCOCCOCCNc5cccc(C(=O)Nc6nc(C)c(C)s6)c5C)CC4)cn3)nc2n(C2CCCC2)c1=O [CPD-122, 3-((2-(2-(2-(3-(4-(6-((6-Acetyl-8-cyclopentyl-5-methyl-7-oxo-7,8-dihydropyrido[2,3-d]pyrimidin-2-yl)amino)pyridin-3-yl)piperazin-1-yl)-3-oxopropoxy)ethoxy)ethoxy)ethyl)amino)-N-(4,5-dimethylthiazol-2-yl)-2-methylbenzamide]",,A (protein percentage degradation >=80%),50 to 80%
,< 30%,"CC(=O)c1c(C)c2cnc(Nc3ccc(N4CCN(CC(=O)NCCCNc5cccc(C(=O)Nc6nc(C)c(C)s6)c5C)CC4)cn3)nc2n(C2CCCC2)c1=O [CPD-098, 3-((3-(2-(4-(6-((6-Acetyl-8-cyclopentyl-5-methyl-7-oxo-7,8-dihydropyrido[2,3-d]pyrimidin-2-yl)amino)pyridin-3-yl)piperazin-1-yl)acetamido)propyl)amino)-N-(4,5-dimethylthiazol-2-yl)-2-methylbenzamide]",,D (protein percentage degradation <30%),
,< 30%,"CC(=O)c1c(C)c2cnc(Nc3ccc(N4CCN(CC(=O)NCCCCCCCCNc5ccc(C)c(C(=O)Nc6nc(C)c(C)s6)c5)CC4)cn3)nc2n(C2CCCC2)c1=O [CPD-095, 5-((8-(2-(4-(6-((6-Acetyl-8-cyclopentyl-5-methyl-7-oxo-7,8-dihydropyrido[2,3-d]pyrimidin-2-yl)amino)pyridin-3-yl)piperazin-1-yl)acetamido)octyl)amino)-N-(4,5-dimethylthiazol-2-yl)-2-methylbenzamide]",,D (protein percentage degradation <30%),
,50 to 80%,"COc1ccc(NC(=O)c2ccccc2NC(=O)CCCCN2CCC(NC(=O)CN3CCN(c4ccc(Nc5ncc6c(C)c(C(C)=O)c(=O)n(C7CCCC7)c6n5)nc4)CC3)CC2)nn1 [CPD-346, 2-(5-(4-(2-(4-(6-((6-Acetyl-8-cyclopentyl-5-methyl-7-oxo-7,8-dihydropyrido[2,3-d]pyrimidin-2-yl)amino)pyridin-3-yl)piperazin-1-yl)acetamido)piperidin-1-yl)pentanamido)-N-(6-methoxypyridazin-3-yl)benzamide]",,A (protein percentage degradation >=80%),
,< 30%,"CC(=O)c1c(C)c2cnc(Nc3ccc(N4CCN(CC(=O)NCCOCCOCCOCCNC(=O)COc5ccc(C(=O)Nc6ncc(C)s6)c(C)c5)CC4)cn3)nc2n(C2CCCC2)c1=O [CPD-040, 4-((17-(4-(6-((6-Acetyl-8-cyclopentyl-5-methyl-7-oxo-7,8-dihydropyrido[2,3-d]pyrimidin-2-yl)amino)pyridin-3-yl)piperazin-1-yl)-2,16-dioxo-6,9,12-trioxa-3,15-diazaheptadecyl)oxy)-2-methyl-N-(5-methylthiazol-2-yl)benzamide]",,D (protein percentage degradation <30%),
,30 to 50%,"CC(=O)c1c(C)c2cnc(Nc3ccc(N4CCN(C(=O)CCOCCOCCNc5cccc(C(=O)Nc6nc(C)c(C)s6)c5C)CC4)cn3)nc2n(C2CCCC2)c1=O [CPD-121, 3-((2-(2-(3-(4-(6-((6-Acetyl-8-cyclopentyl-5-methyl-7-oxo-7,8-dihydropyrido[2,3-d]pyrimidin-2-yl)amino)pyridin-3-yl)piperazin-1-yl)-3-oxopropoxy)ethoxy)ethyl)amino)-N-(4,5-dimethylthiazol-2-yl)-2-methylbenzamide]",,"C (protein percentage degradation <50%, and >=30%)",
